Measured values: US20050113450A1, “Antibacterial agents” (priority 2002, published 2005)
Values after ≈ are worked out from the molar mass of the structure shown.

Test system: SA 9218
Test: MIC by standard agar dilution method
Format: cell-based
Conditions: Mueller Hinton agar, 10^4 to 10^5 cells per spot, incubated overnight at 35° C., lowest concentration that inhibits visible growth
Source text: The antibacterial agents of this invention have useful activity against a variety of organisms. The in vitro activity of compounds of this invention can be assessed by standard testing procedures such as the determination of minimum inhibitory concentration (MIC) by agar dilution as described in “Approved Standard. Methods for Dilution Antimicrobial Susceptibility Tests for Bacteria That Grow Aerobically”, 3rd. ed., published 1993 by the National Committee for Clinical Laboratory Standards, Villanova, Pa., USA. The in vitro MICs of test compounds were determined by a standard agar dilution method. A stock drug solution of each analog was prepared in the preferred solvent, usually DMSO:H2O (1:3). Serial 2-fold dilutions of each sample are made using 1.0 ml aliquots of sterile distilled water. To each 1.0 ml aliquot of drug was added 9 ml of molten Mueller Hinton agar medium. The drug-supplemented agar was mixed, poured into 15×100 mm petri dishes, and allowed to solidify and dry prior to inoculation. Vials of each of the test organisms are maintained frozen in the vapor phase of a liquid nitrogen freezer. Test cultures are grown overnight at 35° C. on the medium appropriate for the organism. Colonies are harvested with a sterile swab, and cell suspensions are prepared in Trypticase Soy broth (TSB) to equal the turbidity of a 0.5 McFarland standard. A 1:20 dilution of each suspension was made in TSB. The plates containing the drug supplemented agar are inoculated with a 0.001 ml drop of the cell suspension using a Steers replicator, yielding approximately 10^4 to 10^5 cells per spot. The plates are incubated overnight at 35° C. Following incubation the Minimum Inhibitory Concentration (MIC μg/ml), the lowest concentration of drug that inhibits visible growth of the organism, was read and recorded.

| Compound | MIC [µg/mL] |
| --- | --- |
| Cc1ccc(S(=O)(=O)Nc2ccc(C(=O)Nc3ccc(Br)cc3C(=O)O)cc2)cc1 | 16 (≈ 32.7 µM) |
| O=C(Nc1ccc(I)cc1C(=O)O)c1ccc(S(=O)(=O)N2CCc3ccc(Cl)cc32)cc1 | 4 (≈ 6.86 µM) |
| O=C(Nc1ccc(Br)cc1C(=O)O)c1ccc(Br)c(S(=O)(=O)N2CCN(c3cccc(C(F)(F)F)c3)CC2)c1 | 8 (≈ 11.6 µM) |
| Cc1ccc(S(=O)(=O)N2CCN(c3ccc(Cl)cc3)CC2)cc1C(=O)Nc1ccc(Br)cc1C(=O)O | 32 (≈ 54 µM) |
| O=C(Nc1ccc(Br)cc1C(=O)O)c1cccc(O)c1 | 32 (≈ 95.2 µM) |
| COc1ccc(C(=O)Nc2ccc(Br)cc2C(=O)O)cc1S(=O)(=O)NCc1ccc(N(C)C)cc1 | > 128 |
| COCCOc1cccc(C(=O)Nc2ccc(Br)cc2C(=O)O)c1 | 16 (≈ 40.6 µM) |
| CCCC(=O)C(CCC)Oc1cccc(C(=O)Nc2ccc(Br)cc2C(=O)O)c1 (stereo not shown) | 2 (≈ 4.33 µM) |
| COC(=O)C(Oc1cccc(C(=O)Nc2ccc(Br)cc2C(=O)O)c1)c1ccccc1 (stereo not shown) | 4 (≈ 8.26 µM) |
| O=C(Nc1ccc(Br)cc1C(=O)O)c1ccc(O)cc1 | 32 (≈ 95.2 µM) |
| Cc1ncsc1CCOc1cccc(C(=O)Nc2ccc(Br)cc2C(=O)O)c1 | 8 (≈ 17.3 µM) |
| CCOc1cccc(C(=O)Nc2ccc(Br)cc2C(=O)O)c1 | 64 (≈ 176 µM) |
| O=C(Nc1ccc(Br)cc1C(=O)O)c1cccc(OCCN2CCCC2=O)c1 | 32 (≈ 71.5 µM) |
| CCOCCOCCOc1cccc(C(=O)Nc2ccc(Br)cc2C(=O)O)c1 | 32 (≈ 70.7 µM) |
| Cc1oc(-c2ccccc2)nc1CCOc1cccc(C(=O)Nc2ccc(Br)cc2C(=O)O)c1 | 32 (≈ 61.4 µM) |
| COC(=O)COc1cccc(C(=O)Nc2ccc(Br)cc2C(=O)O)c1 | 32 (≈ 78.4 µM) |
| CCCC(Oc1cccc(C(=O)Nc2ccc(Br)cc2C(=O)O)c1)C(=O)OCC (stereo not shown) | 8 (≈ 17.2 µM) |
| O=C(Nc1ccc(Br)cc1C(=O)O)c1cccc(OCc2cccnc2)c1 | 32 (≈ 74.9 µM) |
| O=C(Nc1ccc(Br)cc1C(=O)O)c1ccc(OCCOc2ccccc2)cc1 | 128 (≈ 281 µM) |
| O=C(Nc1ccc(Br)cc1C(=O)O)c1cccc(OCC2CCOC2)c1 (stereo not shown) | 16 (≈ 38.1 µM) |
| CC(=O)NCCOc1ccc(C(=O)Nc2ccc(Br)cc2C(=O)O)cc1 | 64 (≈ 152 µM) |
| O=C(Nc1ccc(Br)cc1C(=O)O)c1cccc(OCn2nnc3ccccc32)c1 | 32 (≈ 68.5 µM) |
| CCOCCOCCOc1ccc(C(=O)Nc2ccc(Br)cc2C(=O)O)cc1 | 128 (≈ 283 µM) |
| CCOc1ccc(C(=O)Nc2ccc(Br)cc2C(=O)O)cc1 | 64 (≈ 176 µM) |

| Compound | MIC [µg/mL] |
| --- | --- |
| COc1cccc(COc2ccc(C(=O)Nc3ccc(Br)cc3C(=O)O)cc2)c1 | 8 (≈ 17.5 µM) |
| CN(CCOc1ccc(C(=O)Nc2ccc(Br)cc2C(=O)O)cc1)Cc1ccccc1 | 128 (≈ 265 µM) |
| COC(=O)COc1ccc(C(=O)Nc2ccc(Br)cc2C(=O)O)cc1 | 64 (≈ 157 µM) |
| COCCOc1ccc(C(=O)Nc2ccc(Br)cc2C(=O)O)cc1 | 128 (≈ 325 µM) |
| O=C(Nc1ccc(Br)cc1C(=O)O)c1ccc(OCc2cccnc2)cc1 | 64 (≈ 150 µM) |
| CCC#CCCOc1ccc(C(=O)Nc2ccc(Br)cc2C(=O)O)cc1 | 16 (≈ 38.4 µM) |
| COC(COc1ccc(C(=O)Nc2ccc(Br)cc2C(=O)O)cc1)c1ccccc1 (stereo not shown) | 64 (≈ 136 µM) |
| Nc1ccc(CCNS(=O)(=O)c2cccc(C(=O)Nc3ccc(Br)cc3C(=O)O)c2)cc1 | 64 (≈ 123 µM) |
| CCN(Cc1ccncc1)S(=O)(=O)c1cccc(C(=O)Nc2ccc(Br)cc2C(=O)O)c1 | 32 (≈ 61.7 µM) |
| CCNS(=O)(=O)c1cccc(C(=O)Nc2ccc(Br)cc2C(=O)O)c1 | 64 (≈ 150 µM) |
| O=C(Nc1ccc(Br)cc1C(=O)O)c1cc(S(=O)(=O)N2CCN(c3cccc(C(F)(F)F)c3)CC2)ccc1Br | 8 (≈ 11.6 µM) |
| N#Cc1ccc(NC(=O)c2ccc(O)cc2)c(C(=O)O)c1 | 64 (≈ 227 µM) |
| O=C(Nc1ccc(Br)cc1C(=O)O)c1cc(S(=O)(=O)Nc2ccc(F)c(Cl)c2)ccc1Br | 32 (≈ 52.7 µM) |
| COc1ccc(C(=O)Nc2ccc(Br)cc2C(=O)O)cc1S(=O)(=O)Nc1ccc(Cl)c2ccccc12 | > 128 |
| O=C(Nc1ccc(Br)cc1C(=O)O)c1cc(S(=O)(=O)N2CCc3ccccc32)ccc1Br | 2 (≈ 3.45 µM) |
| COc1ccc(C(=O)Nc2ccc(Br)cc2C(=O)O)cc1S(=O)(=O)Nc1ccc(N2CCOCC2)cc1 | 64 (≈ 108 µM) |
| Cc1ccc(S(=O)(=O)NCCc2ccc(N)cc2)cc1C(=O)Nc1ccc(Br)cc1C(=O)O | > 128 |
| Cc1ccc(S(=O)(=O)N2CCN(c3cccc(C(F)(F)F)c3)CC2)cc1C(=O)Nc1ccc(Br)cc1C(=O)O | 16 (≈ 25.5 µM) |
| CCN(Cc1ccncc1)S(=O)(=O)c1cc(C(=O)Nc2ccc(Br)cc2C(=O)O)ccc1Br | 128 (≈ 214 µM) |
| O=C(Nc1ccc(Br)cc1C(=O)O)c1cc(S(=O)(=O)Nc2ccc(F)c(Cl)c2)c(F)cc1Cl | > 128 |
| O=C(Nc1ccc(Br)cc1C(=O)O)c1ccc(/N=N/c2ccccc2)cc1 | 16 (≈ 37.7 µM) |
| O=C(Nc1ccc(Br)cc1C(=O)O)c1ccc(Br)c(S(=O)(=O)Nc2ccc3c(c2)OCCO3)c1 | 64 (≈ 105 µM) |
| O=C(Nc1ccc(Br)cc1C(=O)O)c1ccccc1F | 128 (≈ 379 µM) |
| COc1ccc(C(=O)Nc2ccc(Br)cc2C(=O)O)cc1S(=O)(=O)N1CCN(c2cccc(C(F)(F)F)c2)CC1 | 32 (≈ 49.8 µM) |

| Compound | MIC [µg/mL] |
| --- | --- |
| N#Cc1ccc(NC(=O)c2cccc3cccc(C=O)c23)c(C(=O)O)c1 | > 128 |
| CC(C)CN1C(=O)c2ccc(C(=O)Nc3ccc(Br)cc3C(=O)O)cc2C1=O | 2 (≈ 4.49 µM) |
| CN(C)c1cccc(C(=O)Nc2ccc(C#N)cc2C(=O)O)c1 | 8 (≈ 25.9 µM) |
| O=C(Nc1ccc(Br)cc1C(=O)O)c1ccc2c(c1)C(=O)N(CC1CCCO1)C2=O (stereo not shown) | 8 (≈ 16.9 µM) |
| C=Cc1ccc(C(=O)Nc2ccc(C#N)cc2C(=O)O)cc1 | 8 (≈ 27.4 µM) |
| COc1ccc(C(=O)Nc2ccc(Br)cc2C(=O)O)cc1[N+](=O)[O-] | 32 (≈ 81 µM) |
| COc1cc(C(=O)Nc2ccc(C#N)cc2C(=O)O)cc(OC)c1OC | 64 (≈ 180 µM) |
| CN1C(=O)c2ccc(C(=O)Nc3ccc(Br)cc3C(=O)O)cc2C1=O | 128 (≈ 317 µM) |
| N#Cc1ccc(NC(=O)c2ccc(-c3ccccc3)cc2)c(C(=O)O)c1 | 64 (≈ 187 µM) |
| COc1cc(C(=O)Nc2ccc(C#N)cc2C(=O)O)ccc1C | > 128 |
| COc1cc(C(=O)Nc2ccc(C#N)cc2C(=O)O)c([N+](=O)[O-])cc1OC | > 128 |
| N#Cc1ccc(C(=O)Nc2ccc(C#N)cc2C(=O)O)cc1 | > 128 |
| N#Cc1ccc(NC(=O)c2ccc3ccccc3c2)c(C(=O)O)c1 | 2 (≈ 6.32 µM) |
| N#Cc1ccc(NC(=O)c2cccc(F)c2)c(C(=O)O)c1 | 64 (≈ 225 µM) |
| CCOc1cc(C(=O)Nc2ccc(C#N)cc2C(=O)O)cc(OCC)c1OCC | 16 (≈ 40.2 µM) |
| CCSc1ccc(C(=O)Nc2ccc(C#N)cc2C(=O)O)cc1 | 2 (≈ 6.13 µM) |
| COc1ccc(C(=O)Nc2ccc(C#N)cc2C(=O)O)cc1 | 16 (≈ 54 µM) |
| CCN(CC)c1ccc(C(=O)Nc2ccc(C#N)cc2C(=O)O)cc1 | 16 (≈ 47.4 µM) |
| CCN(CC)C(=O)c1c(F)ccc(F)c1C(=O)Nc1ccc(C#N)cc1C(=O)O | > 128 |
| COc1ccc(C(=O)Nc2ccc(C#N)cc2C(=O)O)cc1OC | 64 (≈ 196 µM) |
| CCCOc1ccc(C(=O)Nc2ccc(C#N)cc2C(=O)O)cc1 | 16 (≈ 49.3 µM) |
| CCOc1ccc(C(=O)Nc2ccc(C#N)cc2C(=O)O)cc1OCC | 128 (≈ 361 µM) |
| N#Cc1ccc(NC(=O)c2ccc3c(c2)OCO3)c(C(=O)O)c1 | 16 (≈ 51.6 µM) |
| CCOc1ccc(C(=O)Nc2ccc(C#N)cc2C(=O)O)cc1 | 32 (≈ 103 µM) |

| Compound | MIC [µg/mL] |
| --- | --- |
| COc1ccc(CCOc2ccc(C(=O)Nc3ccc(Br)cc3C(=O)O)cc2)cc1 | > 128 |
| N#Cc1ccc(NC(=O)c2cccc3c2C(=O)c2ccccc2-3)c(C(=O)O)c1 | > 128 |
| COc1ccc(CCOc2cccc(C(=O)Nc3ccc(Br)cc3C(=O)O)c2)cc1 | 32 (≈ 68 µM) |
| CCCCCOc1ccc(C(=O)Nc2ccc(C#N)cc2C(=O)O)cc1 | 4 (≈ 11.4 µM) |
| O=C(Nc1ccc(Br)cc1C(=O)O)c1cccc(OCc2cccc([N+](=O)[O-])c2)c1 | 16 (≈ 34 µM) |
| Cc1cccc(C(=O)Nc2ccc(C#N)cc2C(=O)O)c1 | 32 (≈ 114 µM) |
| O=C(Nc1ccc(Br)cc1C(=O)O)c1cccc(OCc2cccc(F)c2)c1 | 16 (≈ 36 µM) |
| COc1ccc(C(=O)Nc2ccc(C#N)cc2C(=O)O)cc1F | 8 (≈ 25.5 µM) |
| O=C(Nc1ccc(Br)cc1C(=O)O)c1cccc(OCc2ccncc2)c1 | > 128 |
| O=C(Nc1ccc(Br)cc1C(=O)O)c1ccc(OCc2cccc(C(F)(F)F)c2)cc1 | 32 (≈ 64.7 µM) |
| O=C(Nc1ccc(Br)cc1C(=O)O)c1ccc(OCc2cccc([N+](=O)[O-])c2)cc1 | 16 (≈ 34 µM) |
| O=C(Nc1ccc(Br)cc1C(=O)O)c1cccc(OCc2cccc(C(F)(F)F)c2)c1 | 64 (≈ 129 µM) |
| COc1cc(COc2ccc(C(=O)Nc3ccc(Br)cc3C(=O)O)cc2)ccc1[N+](=O)[O-] | 8 (≈ 16 µM) |
| O=C(Nc1ccc(Br)cc1C(=O)O)c1ccc(OCC2CCCC2)cc1 | > 128 |
| C#CC(CC)Oc1ccc(C(=O)Nc2ccc(Br)cc2C(=O)O)cc1 (stereo not shown) | > 128 |
| O=C(Nc1ccc(Br)cc1C(=O)O)c1cccc(OCC2CCCC2)c1 | 128 (≈ 306 µM) |
| CCN(CCOc1ccc(C(=O)Nc2ccc(Br)cc2C(=O)O)cc1)c1ccccc1 | 64 (≈ 132 µM) |
| O=C(Nc1ccc(Br)cc1C(=O)O)c1ccc(OCCN2C(=O)CCC2=O)cc1 | > 128 |
| Cc1ncc([N+](=O)[O-])n1CCOc1ccc(C(=O)Nc2ccc(Br)cc2C(=O)O)cc1 | 128 (≈ 262 µM) |
| O=C(Nc1ccc(Br)cc1C(=O)O)c1ccc(OCc2cccc(F)c2)cc1 | 32 (≈ 72 µM) |
| CN1CCCC1COc1ccc(C(=O)Nc2ccc(Br)cc2C(=O)O)cc1 (stereo not shown) | > 128 |
| O=C(Nc1ccc(Br)cc1C(=O)O)c1ccc(OCc2ccncc2)cc1 | > 128 |
